Patent US4704397A, “Pharmaceutical salts of 4-(9-acridinyl-amino) methanesulfon-m-anisidide” (Warner-Lambert Company, priority 1981, dated 1987)
Where two headings read alike, the source gives them in different places.

How the values were obtained:
[1] = type: physicochemical; details: warming to room temperature and shaking
Description: The salts of the present invention allow one to prepare solutions of m-AMSA without the aid of dimethylacetamide. Depending upon the salt, concentration and temperature,standing may result in certain of the solutions of salts forming gels. However, a salt need only remain in solution for a period long enough for it to be administered to a patient.
Stability of Preferred --m-AMSA Salts

mice = details: studies using mice; cited from earlier work

| SMILES | return of gelled solution to fluid state ([1]; 10 mg/ml after storing at 5 °C) | return of gelled solution to fluid state ([1]; lower concentrations gelled at 5 °C) | activity in treating mammals (mice) |
| --- | --- | --- | --- |
| COc1cc(NS(C)(=O)=O)ccc1Nc1c2ccccc2nc2ccccc12 [gluconate, 4'-(9-acridinylamino)methanesulfon-m-anisidide D-gluconate] | could not be achieved | could be returned to a fluid state |  |
| COc1cc(NS(C)(=O)=O)ccc1Nc1c2ccccc2nc2ccccc12 [m-AMSA, 4'-(9-acridinylamino)methanesulfon-m-anisidide] |  |  | high degree of activity |
